Measured values published in patent US9486465B2, “Attractant for bone marrow stem cells and method for attracting bone marrow stem cells” (PIAS CORPORATION, priority 2012, dated 2016).

Tested on: wound with full-thickness skin loss in genetically diabetic db/db mice
Experiment: Cell attraction test in vivo of mice: skin regeneration test (wound healing test)
Set-up: species or system mouse
Details: 120 μg/mL or 40 μg/mL PBS solution, 20 μL per site dropwise onto wound surface, three times per week for four weeks, FIG. 4
From the text: Cell Attraction Test In Vivo of Mice
In order to evaluate the performance of the attractant for bone marrow stem cells to attract bone marrow stem cells in vivo of mice, living mice were subjected to experiments as follows. When a living mouse is wounded, bone marrow stem cells can accumulate around the wound portion through the bloodstream. Then, the bone marrow stem cells that have accumulated around the wound portion secrete cytokine, or the bone marrow stem cells that have accumulated around the wound portion differentiate into cells of the wound portion, thereby allowing the wound to be healed. Accordingly, it is expected that application of the attractant for bone marrow stem cells to the wound portion causes the bone marrow stem cells to be attracted to the wound portion, thereby accelerating the healing of the wound.
Method of Skin Regeneration Test (Wound Healing Test) […]
A picture of the back was captured three times per week, for four weeks, and the image was loaded into a PC. Thus, the wound area was measured using an image analysis software (product name: Image J). Thereafter, the wound area was measured once a week until about 60 days from the wound creation.

Structure (SMILES): Oc1cc(O)c2c(c1)O[C@@]1(c3ccc(O)c(O)c3)Oc3cc(O)c4c(c3[C@@H]2[C@H]1O)O[C@H](c1ccc(O)c(O)c1)[C@H](O)[C@H]4c1c(O)cc(O)c2c1O[C@H](c1ccc(O)c(O)c1)[C@H](O)C2 [cinnamtannin B1]
- wound area measurement (healing of the wound): healing of the wound was accelerated
